From publication PMC11124387, “A Reliable Multifaceted Solution against Foodborne Viral Infections: The Case of RiLK1 Decapeptide” (Molecules, 2024)
“And” between values parts separate entries of the source, which are not always exact repeats. Equal entries are not always repeated. Where two headings read alike, the source gives them in different places. Where a SMILES comes first, the peptide text is derived from it.

Legend:
[1] = tested on: Hepatitis A virus (HAV) strain HM-175; test: Virus pre-treatment assay, HAV; format: cell-based; conditions: virus pre-treatment: peptide 80 µM with virus 1 h at RT, then on Frp3 cells 1 h 37 °C, mean ± SD
Description: Four sets of experiments were performed to suppose the effect of RiLK1 and RiLK3 on HAV and MNV-1 [29]. To this aim, 80 µM solutions of the two peptides and HAV and MNV-1 suspensions at a final concentration of 4.7 ± 0.2 log TCID50/mL and 4.5 ± 0.2 log TCID50/mL, respectively, were used in the following experiments: • i) A virus pre-treatment assay to assess the direct interaction between the virus and peptide: the incubation of the peptide with viral suspension for 1 h at room temperature was carried out, followed by its incubation on cells for 1 h at 37 °C. Then, cell monolayers were washed twice with PBS and incubated with 500 µL DMEM/MEM supplemented with 2% of FBS to determine the TCID50/mL. • ii) A cell pre-treatment assay to assess the interaction between the peptide and cells before the viral infection: cell monolayers were preincubated with 100 µL of peptide solution for 1 h at 37 °C, followed by the removal of the peptide, addition to cells of viral suspensions for 1 h at 37 °C, washing step, and culture with 2% FBS DMEM/MEM. • iii) An attachment assay to assess the possible action of the peptide at the stage of virus attachment to cells: cell monolayers were incubated with 100 µL of a suspension containing both the peptide and virus and were incubated for 1 h at 4 °C. […]
(§1) For each treatment, the average and standard deviation of the triplicate analyses were calculated. The virucidal effects of AMPs was assessed by calculating the log reduction value (LRV), i.e., the difference between the infectious titer (log-transformed) of untreated versus treated samples. The statistical significance of differences between treated and untreated samples was determined through one-way analysis of variance (ANOVA) with Bonferroni post hoc comparisons, with a significance level of p < 0.05 (GraphPad Prism v9.5.0, software San Diego, CA, USA).

[2] = tested on: Murine norovirus strain 1 (MNV-1); format: cell-based; conditions: for Viral Titre after Treatment: titration on RAW 264.7 cells; for Viral Titre after Treatment / LRV (log reduction value): mean ± SD, triplicate
From the text: (§2) Murine norovirus strain 1 (MNV-1) was used as a surrogate for human norovirus (NoV). The virus was replicated in RAW 264.7 cells (murine macrophage cell line) cultured in Dulbecco’s modified Eagle’s medium (DMEM) supplemented with 1% glutamine, 1% non-essential amino acids, and 2% fetal bovine serum (FBS). Hepatitis A virus (HAV) strain HM-175 was replicated in Frp3 cells (non-human primate cell line derived from fetal kidney) cultured in minimum essential medium (MEM) with Earle’s salts supplemented with 1% glutamine, 2% non-essential amino acids, and 2% FBS. Both viruses were incubated in 5% CO2 at 37 °C. All cell culture media were provided by EuroClone (Milan, Italy). The viral suspensions were prepared by freeze and thaw lysis (1 cycle for MNV-1 and 3 cycles for HAV) of infected monolayers, clarified using low-speed centrifugation (800× g) to remove residual cell debris, then divided in aliquots, and stored at −80 °C until use.
(§3) Solutions 40 µM and 80 µM of each peptide of the panel (RiLK1, RiLK3, RiLK30, 1018-K6, MTP1, and AVP2) were chosen for the virucidal tests. HAV and MNV-1 were assayed at a concentration of 4.7 ± 0.2 log TCID50/mL and 4.5 ± 0.2 log TCID50/mL, respectively. The suspensions containing the peptides and viruses were incubated for 1 h at room temperature (RT,20 ± 2 °C) and 4 °C. These temperatures were chosen to simulate the use of sanitizing solutions in food production/processing environments. Residual viral infectivity was evaluated by titration (TCID50/mL) on Frp3 cells for HAV and on RAW 264.7 cells for MNV-1. Untreated HAV and MNV-1 suspensions and 40 µM and 80 µM AMP solutions, incubated at the same conditions, were used as controls. Each treatment condition was assayed in triplicate. For titration, 100 µL of serial tenfold dilutions of each sample were assayed in 24-well tissue culture plates containing 24–48 h cell monolayers and incubated for 1 h in 5% CO2 at 37 °C. After that, the wells were washed twice with 200 µL of PBS, and 500 µL of DMEM/MEM, supplemented with 2% of FBS, were was added to each well; MNV-1 and HAV incubations were carried for up to 6 days and 14 days, respectively, in 5% CO2 at 37 °C with daily visual inspection to determine the cytopathic effect. The virucidal efficacy of AMPs was estimated by comparing the titers of treated and untreated viral suspensions.
as §1

[3] = tested on: Hepatitis A virus (HAV) strain HM-175; conditions: cited from earlier work; for LRV (log reduction value) / Viral Titre after Treatment: RT (20 ± 2 °C), mean ± SD, ref [46] (table footnote; text b35 cites [45])
From the text: Table 2 In vitro effect of peptides on HAV. | column: Viral Titre after Treatment (logTCID50/mL ± SD) / RT; LRV (logTCID50/mL ± SD) / RT || In a previous work, the antiviral effects of RiLK1 and RiLK3 were already investigated against hepatitis A virus (HAV) following treatment at room temperature, and the obtained results are reported in Table 2. Briefly, RiLK1 was able to reduce HAV infectivity by more than 1 log in comparison with the untreated virus, displaying a log reduction value (LRV) of 1.4 at 80 μM and 1.1 at 40 μM concentration. […] Therefore, based on these preliminary results, further insights into the virucidal activity ...

[4] = tested on: Hepatitis A virus (HAV) strain HM-175; test: Virucidal effect of peptides on HAV (residual infectivity by TCID50 titration on Frp3 cells); format: cell-based; conditions: for Viral Titre after Treatment: titration on Frp3 cells; for Viral Titre after Treatment / LRV (log reduction value): mean ± SD, triplicate
From the text: as §2, §3, §1

[5] = tested on: Murine norovirus strain 1 (MNV-1); test: Entry assay, MNV-1; format: cell-based; conditions: entry: cells with virus 1 h at 4 °C, then peptide 80 µM 1 h 37 °C, mean ± SD
Description: Four sets of experiments were performed to suppose the effect of RiLK1 and RiLK3 on HAV and MNV-1 [29]. To this aim, 80 µM solutions of the two peptides and HAV and MNV-1 suspensions at a final concentration of 4.7 ± 0.2 log TCID50/mL and 4.5 ± 0.2 log TCID50/mL, respectively, were used in the following experiments: • i) A virus pre-treatment assay to assess the direct interaction between the virus and peptide: the incubation of the peptide with viral suspension for 1 h at room temperature was carried out, followed by its incubation on cells for 1 h at 37 °C. Then, cell monolayers were washed twice with PBS and incubated with 500 µL DMEM/MEM supplemented with 2% of FBS to determine the TCID50/mL. • ii) A cell pre-treatment assay to assess the interaction between the peptide and cells before the viral infection: cell monolayers were preincubated with 100 µL of peptide solution for 1 h at 37 °C, followed by the removal of the peptide, addition to cells of viral suspensions for 1 h at 37 °C, washing step, and culture with 2% FBS DMEM/MEM. • iii) An attachment assay to assess the possible action of the peptide at the stage of virus attachment to cells: cell monolayers were incubated with 100 µL of a suspension containing both the peptide and virus and were incubated for 1 h at 4 °C. Subsequently, the cell monolayers were washed with PBS and incubated for 1 h at 37 °C with a culture medium followed by a washing step and the addition of culture with 2% FBS DMEM/MEM. • iv) An entry assay to assess the possible action of the peptide at the stage of virus internalization into cells: cell monolayers were incubated with 100 µL of the viral suspension for 1 h at 4 °C, followed by the addition of the peptide and incubation for 1 h at 37 °C. Cells were then washed with PBS, and 2% FBS DMEM/MEM was finally added.
Untreated viral suspensions and peptide solutions, incubated at the same conditions, were used as controls.
as §1

[6] = MNV-1 4.5 ± 0.2 log TCID50/mL + peptide 80 µM, 1 h at 4 °C
[7] = MNV-1 + peptide 40 µM, 1 h at 4 °C
[8] = MNV-1 + peptide 40 µM, 1 h at RT (20 ± 2 °C)
[9] = MNV-1 + peptide 80 µM, 1 h at 4 °C
[10] = MNV-1 + peptide 80 µM, 1 h at RT (20 ± 2 °C)
[11] = maximum reduction, corresponding to the highest LRV
[12] = HAV 4.7 ± 0.2 log TCID50/mL + peptide 80 µM, 1 h at 4 °C
[13] = HAV + peptide 40 µM, 1 h at 4 °C
[14] = HAV + peptide 40 µM, 1 h at 4 °C, untreated minus treated titre
[15] = HAV + peptide 80 µM, 1 h at 4 °C, untreated minus treated titre
[16] = HAV + peptide 40 µM, 1 h at RT (20 ± 2 °C)
[17] = HAV + peptide 80 µM, 1 h at RT (20 ± 2 °C)

Row | Compound | Viral Titre after Treatment [2, 6] | LRV (log reduction value) [2, 7] | Viral Titre after Treatment [2, 7] | LRV (log reduction value) [2, 8] | Viral Titre after Treatment [2, 8] | LRV (log reduction value) [2, 9] | LRV (log reduction value) [2, 10] | Viral Titre after Treatment [2, 10] | Viral Titre after Treatment [4, 12] | Viral Titre after Treatment [4, 13] | LRV (log reduction value) [4, 14] | LRV (log reduction value) [4, 15] | other results
1 | CC[C@H](C)[C@H](NC(=O)[C@H](CCCNC(=N)N)NC(=O)[C@@H](NC(=O)[C@H](Cc1c[nH]c2ccccc12)NC(=O)[C@H](CCCCN)NC(=O)[C@H](CC(C)C)NC(=O)[C@@H](N)CCCNC(=N)N)C(C)C)C(=O)N[C@@H](Cc1c[nH]c2ccccc12)C(=O)N[C@@H](CCCNC(=N)N)C(=O)N[C@@H](CCCNC(=N)N)C(N)=O [RiLK1] (H-RLKWVRIWRR-NH2; N-terminus assumed) | 4.3 ± 0.2 logTCID50/mL | 0.2 ± 0.4 logTCID50/mL | 4.3 ± 0.2 logTCID50/mL | 1.0 ± 0.4 logTCID50/mL | 3.5 ± 0.2 logTCID50/mL | 0.2 ± 0.4 logTCID50/mL | 1.2 ± 0.4 logTCID50/mL | 3.3 ± 0.2 logTCID50/mL | 3.6 ± 0.1 logTCID50/mL | 3.9 ± 0.2 logTCID50/mL | 0.8 ± 0.4 logTCID50/mL | 1.1 ± 0.3 logTCID50/mL | Viral Titre [1]: 3.3 ± 0.2 logTCID50/mL; reduction of MNV-1 infectivity [2, 11]: up to 94.1%; LRV (log reduction value) ([3]; HAV + peptide 40 µM): 1.1 logTCID50/mL and 1.1 ± 0.3 *^,a logTCID50/mL; Viral Titre after Treatment ([3]; HAV + peptide 40 µM): 3.6 ± 0.1 *^,a logTCID50/mL; LRV (log reduction value) ([3]; HAV + peptide 80 µM): 1.4 logTCID50/mL and 1.4 ± 0.4 *^,a logTCID50/mL; Viral Titre after Treatment ([3]; HAV + peptide 80 µM): 3.3 ± 0.2 *^,a logTCID50/mL; reduction of HAV infectivity in comparison with the untreated virus ([3]; room temperature, ref [45]): more than 1 log; decrease of HAV infectious titer [4, 11]: up to 96.7%; LRV [5]: 1.0 ± 0.4 logTCID50/mL; Viral Titre [5]: 3.5 ± 0.2 logTCID50/mL; LRV ([5]; listed as RilLK1): 1.0 logTCID50/mL
2 | KLRWVKIWKK-NH2 [RiLK30, newly designed RiLK1 derivative, Arg residues exchanged with Lys and Lys3 with Arg] | 3.9 ± 0.2 logTCID50/mL | 0.2 ± 0.5 logTCID50/mL | 4.3 ± 0.3 logTCID50/mL | 0 ± 0.4 logTCID50/mL | 4.5 ± 0.2 logTCID50/mL | 0.6 ± 0.4 logTCID50/mL | 0 ± 0.3 logTCID50/mL | 4.5 ± 0.1 logTCID50/mL | 4.3 ± 0.2 logTCID50/mL | 4.3 ± 0.2 logTCID50/mL | 0.4 ± 0.4 logTCID50/mL | 0.4 ± 0.4 logTCID50/mL | virucidal activity toward MNV-1 (in words) ([2]; 40 and 80 µM, 4 °C and RT): no virucidal activity; virucidal activity toward HAV (in words) ([4]; 40 and 80 µM, 4 °C and RT): no virucidal activity; LRV (log reduction value) [4, 16]: 0.6 ± 0.4 logTCID50/mL; Viral Titre after Treatment [4, 16]: 4.1 ± 0.2 logTCID50/mL; LRV (log reduction value) [4, 17]: 0.6 ± 0.4 logTCID50/mL; Viral Titre after Treatment [4, 17]: 4.1 ± 0.2 logTCID50/mL
